{"source": "paper PMC9926234", "about": "“Iterative computational design and crystallographic screening identifies potent inhibitors targeting the Nsp3 macrodomain of SARS-CoV-2” (Proceedings of the National Academy of Sciences of the …, 2023)", "note": "Where “and” joins values, the source holds several entries; their conditions need not be identical. Identical values can stand only once.", "data": [{"molecular_target": "T1, SARS-CoV-2 NSP3 Mac1 (Severe acute respiratory syndrome coronavirus 2, UniProt P0DTD1)", "assay": "not given", "type": "binding", "settings": "PanDDA event map, 1 minus background density correction; crystal soaking of Mac1", "values": [{"smiles": "C[C@@H]1CN(c2ncnc3[nH]c4ccccc4c23)C[C@@H](CO)O1", "note": "[Z6923]", "1-BDC": 0.1}, {"smiles": "O=C(OCCN1CCOC1=O)c1ncnc2[nH]ccc12", "note": "[Z8207]", "1-BDC": 0.38}]}, {"molecular_target": "T1, SARS-CoV-2 NSP3 Mac1", "assay": "not given", "type": "binding", "settings": "ligand modeled in structure, crystal soak, Compound_concentration 100 mM", "values": [{"smiles": "C[C@@H]1CN(c2ncnc3[nH]c4ccccc4c23)C[C@@H](CO)O1", "note": "[Z6923]", "Modeled?": "TRUE"}]}, {"molecular_target": "T1, SARS-CoV-2 NSP3 Mac1", "assay": "not given", "type": "binding", "settings": "ligand occupancy after refinement (phenix.refine); crystal soaking of Mac1", "values": [{"smiles": "C[C@@H]1CN(c2ncnc3[nH]c4ccccc4c23)C[C@@H](CO)O1", "note": "[Z6923]", "Refined occupancy": 20}, {"smiles": "O=C(OCCN1CCOC1=O)c1ncnc2[nH]ccc12", "note": "[Z8207]", "Refined occupancy": 76}]}, {"molecular_target": "T1, SARS-CoV-2 NSP3 Mac1", "assay": "not given", "type": "binding", "settings": "overall hit flag: binding in crystallographic soaking or the HTRF-based binding assay", "values": [{"smiles": "Cc1[nH]c2ncnc(N3CCOC(CC(F)(F)F)C3)c2c1C", "note": "(stereo not shown) [Z2051]", "HIT*": "Y"}, {"smiles": "CCc1c[nH]c2ncnc(N3CCC[C@H](C(N)=O)C3)c12", "note": "[Z3271]", "HIT*": "Y"}, {"smiles": "C[C@@H]1CN(c2ncnc3[nH]c4ccccc4c23)C[C@@H](CO)O1", "note": "[Z6923]", "HIT*": "Y"}]}, {"molecular_target": "T1, SARS-CoV-2 NSP3 Mac1", "assay": "not given", "type": "binding", "settings": "soaks at 10 to 20 mM", "values": [{"smiles": "O=C(O)CC1CN(c2ncnc3[nH]ccc23)CC2(CCC2)O1", "note": "(stereo not shown) [F6831]", "binding to Mac1 in crystal soaking, result in words": "not confirmed by X-ray crystallography"}, {"smiles": "Cc1[nH]c2ncnc(N3CCOC(CC(F)(F)F)C3)c2c1C", "note": "(stereo not shown) [Z2051]", "binding to Mac1 in crystal soaking, result in words": "not confirmed by X-ray crystallography"}, {"smiles": "CCc1c[nH]c2ncnc(N3CCC[C@H](C(N)=O)C3)c12", "note": "[Z3271]", "binding to Mac1 in crystal soaking, result in words": "not confirmed by X-ray crystallography"}]}, {"molecular_target": "T1, SARS-CoV-2 NSP3 Mac1", "assay": "not given", "type": "binding", "settings": "true hit = binding in crystallographic soaking or the HTRF-based binding assay", "values": [{"smiles": "O=C(O)CC1CN(c2ncnc3[nH]ccc23)CC2(CCC2)O1", "note": "(stereo not shown) [F6831]", "HIT*": "Y"}, {"smiles": "O=C(OCCN1CCOC1=O)c1ncnc2[nH]ccc12", "note": "[Z8207]", "HIT*": "Y"}, {"smiles": "O=C(O)CC1CN(c2ncnc3[nH]c4ccccc4c23)CCO1", "note": "(stereo not shown) [Z9596]", "HIT*": "Y"}]}, {"molecular_target": "T1, SARS-CoV-2 NSP3 Mac1", "assay": "biochemical", "type": "binding", "settings": "HTRF ADPr-peptide displacement from SARS-CoV-2 Mac1; read-out: IC50", "values": [{"smiles": "Cc1[nH]c2ncnc(N3CCOC(CC(F)(F)F)C3)c2c1C", "note": "(stereo not shown) [Z2051]", "IC50": "137 µM"}, {"smiles": "CCc1c[nH]c2ncnc(N3CCC[C@H](C(N)=O)C3)c12", "note": "[Z3271]", "IC50": "204 µM"}, {"smiles": "C[C@@H]1CN(c2ncnc3[nH]c4ccccc4c23)C[C@@H](CO)O1", "note": "[Z6923]", "IC50": "416 µM and ≤ 90 µM"}, {"smiles": "O=C(OCCN1CCOC1=O)c1ncnc2[nH]ccc12", "note": "[Z8207]", "IC50": "60 µM"}]}, {"molecular_target": "T1, SARS-CoV-2 NSP3 Mac1", "assay": "biochemical", "type": "binding", "settings": "HTRF; read-out: IC50", "units": {"IC50": "µM"}, "values": [{"smiles": "O=C(O)CC1CN(c2ncnc3[nH]ccc23)CC2(CCC2)O1", "note": "(stereo not shown) [F6831]", "IC50": 44.2}, {"smiles": "O=C(OCCN1CCOC1=O)c1ncnc2[nH]ccc12", "note": "[Z8207]", "IC50": 60.1}, {"smiles": "O=C(O)CC1CN(c2ncnc3[nH]c4ccccc4c23)CCO1", "note": "(stereo not shown) [Z9596]", "IC50": 37.1}]}, {"molecular_target": "T1, SARS-CoV-2 NSP3 Mac1", "assay": "biochemical", "type": "binding", "settings": "HTRF; several values in a cell are separate determinations; read-out: IC50", "units": {"IC50": "µM"}, "values": [{"smiles": "Cc1[nH]c2ncnc(N3CCOC(CC(F)(F)F)C3)c2c1C", "note": "(stereo not shown) [Z2051]", "IC50": 137}, {"smiles": "CCc1c[nH]c2ncnc(N3CCC[C@H](C(N)=O)C3)c12", "note": "[Z3271]", "IC50": 204}, {"smiles": "C[C@@H]1CN(c2ncnc3[nH]c4ccccc4c23)C[C@@H](CO)O1", "note": "[Z6923]", "IC50": 416}]}, {"molecular_target": "T1, SARS-CoV-2 NSP3 Mac1", "assay": "biochemical", "type": "binding", "settings": "Ki estimation from HTRF-derived IC50, Cheng-Prusoff, peptide 400nM, Kd 2.68µM; read-out: Ki***", "units": {"Ki": "µM"}, "values": [{"smiles": "O=C(O)CC1CN(c2ncnc3[nH]ccc23)CC2(CCC2)O1", "note": "(stereo not shown) [F6831]", "Ki": 38.5}, {"smiles": "Cc1[nH]c2ncnc(N3CCOC(CC(F)(F)F)C3)c2c1C", "note": "(stereo not shown) [Z2051]", "Ki": 119}, {"smiles": "CCc1c[nH]c2ncnc(N3CCC[C@H](C(N)=O)C3)c12", "note": "[Z3271]", "Ki": 177}, {"smiles": "C[C@@H]1CN(c2ncnc3[nH]c4ccccc4c23)C[C@@H](CO)O1", "note": "[Z6923]", "Ki": 362}, {"smiles": "O=C(OCCN1CCOC1=O)c1ncnc2[nH]ccc12", "note": "[Z8207]", "Ki": 52.3}, {"smiles": "O=C(O)CC1CN(c2ncnc3[nH]c4ccccc4c23)CCO1", "note": "(stereo not shown) [Z9596]", "Ki": 32.3}]}, {"molecular_target": "T1, SARS-CoV-2 NSP3 Mac1", "assay": "not given", "type": "binding", "set-up": "contains a conserved macrodomain enzyme (Mac1)", "settings": "DSF dose responsiveness, 1 µM nsp3 mac1; adj p given", "how_it_was_run": "(§1)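 Differential scanning fluorimetry using 5 µM Fluorescent Yellow dye in place of SYPRO Orange. Compounds run in triplicate at seven two-fold dilutions from 1,000 or 100 μM, with ΔTma taken against a DMSO control in the same plate region. Dose-response significance assessed by Spearman's coefficient between concentration and ΔTma.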", "values": [{"smiles": "O=C(O)CC1CN(c2ncnc3[nH]ccc23)CC2(CCC2)O1", "note": "(stereo not shown) [F6831]", "Spearman est (compound concentration vs apparent Tm)": 0.94}, {"smiles": "Cc1[nH]c2ncnc(N3CCOC(CC(F)(F)F)C3)c2c1C", "note": "(stereo not shown) [Z2051]", "Spearman est (compound concentration vs apparent Tm)": 0.51}, {"smiles": "CCc1c[nH]c2ncnc(N3CCC[C@H](C(N)=O)C3)c12", "note": "[Z3271]", "Spearman est (compound concentration vs apparent Tm)": 0.97}, {"smiles": "C[C@@H]1CN(c2ncnc3[nH]c4ccccc4c23)C[C@@H](CO)O1", "note": "[Z6923]", "Spearman est (compound concentration vs apparent Tm)": 0.28}, {"smiles": "O=C(OCCN1CCOC1=O)c1ncnc2[nH]ccc12", "note": "[Z8207]", "Spearman est (compound concentration vs apparent Tm)": 0.99}]}, {"molecular_target": "T1, SARS-CoV-2 NSP3 Mac1", "assay": "not given", "type": "binding", "set-up": "contains a conserved macrodomain enzyme (Mac1)", "settings": "maximal thermal upshift", "how_it_was_run": "as §1", "values": [{"smiles": "O=C(O)CC1CN(c2ncnc3[nH]ccc23)CC2(CCC2)O1", "note": "(stereo not shown) [F6831]", "DSF max dTma": "2.21 ˚C"}, {"smiles": "O=C(OCCN1CCOC1=O)c1ncnc2[nH]ccc12", "note": "[Z8207]", "DSF max dTma": "2.51 ˚C"}]}, {"molecular_target": "T1, SARS-CoV-2 NSP3 Mac1", "assay": "not given", "type": "binding", "set-up": "contains a conserved macrodomain enzyme (Mac1)", "settings": "maximal thermal upshift vs DMSO control", "how_it_was_run": "as §1", "units": {"DSF max dTma": "°C"}, "values": [{"smiles": "Cc1[nH]c2ncnc(N3CCOC(CC(F)(F)F)C3)c2c1C", "note": "(stereo not shown) [Z2051]", "DSF max dTma": 0.51}, {"smiles": "CCc1c[nH]c2ncnc(N3CCC[C@H](C(N)=O)C3)c12", "note": "[Z3271]", "DSF max dTma": 1.77}, {"smiles": "C[C@@H]1CN(c2ncnc3[nH]c4ccccc4c23)C[C@@H](CO)O1", "note": "[Z6923]", "DSF max dTma": 0.46}]}]}
